Test [1] has as its system Rattus norvegicus. As to the kind of experiment: Increase in LDL cholesterol level in orally dosed cholesterol-fed Sprague-Dawley rat relative to control. The format is functional.
The target of test [2] is T1, Thyroid hormone receptor beta (Homo sapiens, UniProt P10828).
T1 sequence (P10828 whole entry): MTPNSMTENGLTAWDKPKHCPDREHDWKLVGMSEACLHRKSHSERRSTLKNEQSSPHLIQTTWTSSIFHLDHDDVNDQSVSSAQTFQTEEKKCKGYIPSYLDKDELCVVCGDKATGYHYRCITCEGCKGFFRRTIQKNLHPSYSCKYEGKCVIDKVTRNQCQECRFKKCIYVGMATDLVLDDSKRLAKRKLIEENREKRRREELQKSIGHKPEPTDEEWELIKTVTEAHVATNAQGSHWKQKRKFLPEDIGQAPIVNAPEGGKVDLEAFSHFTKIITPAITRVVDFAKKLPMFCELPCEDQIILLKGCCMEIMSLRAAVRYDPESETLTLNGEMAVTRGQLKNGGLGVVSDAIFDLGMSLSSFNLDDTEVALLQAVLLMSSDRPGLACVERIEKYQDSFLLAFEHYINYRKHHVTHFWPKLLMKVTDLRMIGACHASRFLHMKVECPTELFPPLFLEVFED
In words: Activity at human TR-beta-1 transfected in CHO K1 cells by alkaline phosphatase reporter gene assay. In general terms: Reporter assays use an easily measured gene product as a stand-in for the process of interest.

Test [3] addresses T2, Thyroid hormone receptor alpha (Homo sapiens, UniProt P10827).
T2 sequence (P10827 whole entry): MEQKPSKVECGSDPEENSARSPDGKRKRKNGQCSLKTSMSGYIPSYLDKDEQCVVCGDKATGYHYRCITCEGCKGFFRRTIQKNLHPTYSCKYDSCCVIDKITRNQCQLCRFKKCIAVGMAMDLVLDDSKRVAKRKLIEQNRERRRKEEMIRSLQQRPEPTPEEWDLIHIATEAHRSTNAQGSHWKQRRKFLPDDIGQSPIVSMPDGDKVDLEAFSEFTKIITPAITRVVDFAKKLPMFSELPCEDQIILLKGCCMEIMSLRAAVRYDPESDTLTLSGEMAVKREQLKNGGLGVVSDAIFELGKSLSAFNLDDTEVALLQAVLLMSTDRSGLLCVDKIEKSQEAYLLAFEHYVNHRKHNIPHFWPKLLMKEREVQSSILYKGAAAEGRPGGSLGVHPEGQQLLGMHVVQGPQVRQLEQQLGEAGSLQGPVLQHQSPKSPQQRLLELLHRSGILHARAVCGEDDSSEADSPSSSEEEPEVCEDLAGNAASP
In words: Binding affinity to human TRalpha1.

For test [4], the system named is Rattus norvegicus. As to the kind of experiment: Decrease in heart rate in orally dosed cholesterol-fed Sprague-Dawley rat relative to control. The format is functional. On the set-up: scale not given: the % may be the effect or the level left.
Test [5] concerns the target T2, Thyroid hormone receptor alpha. As to the kind of experiment: Activity at human TR-alpha-1 transfected in CHO K1 cells by alkaline phosphatase reporter gene assay.
The target in test [6] is T1, Thyroid hormone receptor beta. As to the kind of experiment: Binding affinity to human TRbeta1.

Molecules are shown by their SMILES.

As for `CC(C)c1cc(Oc2c(Br)cc(CCC(=O)O)cc2Br)cc(/C=C/c2ccncc2)c1O`, the Activity is recorded as 13% in the test with Rattus norvegicus [1] and -10% in the test with Rattus norvegicus [4]. In addition, the IC50 (as a rule, the concentration that inhibits the measured activity by half) was 32 nM in test [2], 36 nM in test [3], 32 nM in test [5] and 22 nM in test [6].

`O=C(O)CCc1ccccc1OCC1C(Br)CCCC1Br` (stereo not drawn): the figures for the half-maximal inhibitory concentration (IC50) in test [3] and in test [6] were 460 nM and 190 nM, respectively.

Source of the values: ChEMBL document CHEMBL1137319, “Thyroid receptor ligands. 6. A high affinity "direct antagonist" selective for the thyroid hormone receptor” (J Med Chem, 2006).
